Holding throughout (assay type): cell-based
One assay has as its target T1, Hco-ACC-2 W248Y (Haemonchus contortus, UniProt A0A219KWM7, W248Y).
T1 sequence (A0A219KWM7 18-443 W248Y): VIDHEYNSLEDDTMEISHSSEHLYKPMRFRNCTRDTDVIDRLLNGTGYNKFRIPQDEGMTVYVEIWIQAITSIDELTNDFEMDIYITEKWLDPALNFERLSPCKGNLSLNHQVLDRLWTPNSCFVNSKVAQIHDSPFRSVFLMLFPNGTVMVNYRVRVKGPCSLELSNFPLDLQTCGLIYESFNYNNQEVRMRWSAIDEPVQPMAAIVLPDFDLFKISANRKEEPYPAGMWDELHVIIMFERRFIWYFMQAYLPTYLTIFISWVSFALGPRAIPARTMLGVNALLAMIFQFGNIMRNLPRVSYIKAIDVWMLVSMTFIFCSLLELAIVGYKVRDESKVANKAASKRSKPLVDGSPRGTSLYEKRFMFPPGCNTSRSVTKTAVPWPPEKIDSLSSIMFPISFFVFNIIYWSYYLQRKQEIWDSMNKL
Put plainly: Two-electrode voltage clamp of Hco-ACC-2 W248Y mutant in Xenopus laevis oocytes. A general note: In two-electrode clamp one electrode senses voltage and the other passes current.

A further assay addresses T2, Hco-ACC-2 W248F (Haemonchus contortus, UniProt A0A219KWM7, W248F).
T2 sequence (A0A219KWM7 18-443 W248F): T1 sequence (A0A219KWM7 18-443 W248Y)
Briefly: Two-electrode voltage clamp of Hco-ACC-2 W248F mutant in Xenopus laevis oocytes.

The target of a further assay is T3, Hco-ACC-2 F200W/W248F (Haemonchus contortus, UniProt A0A219KWM7, F200W/W248F).
T3 sequence (A0A219KWM7 18-443 F200W/W248F): T1 sequence (A0A219KWM7 18-443 W248Y)

Another assay concerns the target T4, Hco-ACC-2 F200Y (Haemonchus contortus, UniProt A0A219KWM7, F200Y).
T4 sequence (A0A219KWM7 18-443 F200Y): T1 sequence (A0A219KWM7 18-443 W248Y)
Put plainly: Two-electrode voltage clamp of Hco-ACC-2 F200Y mutant in Xenopus laevis oocytes.

The target in the next assay is T5, Hco-ACC-2 F200W (Haemonchus contortus, UniProt A0A219KWM7, F200W).
T5 sequence (A0A219KWM7 18-443 F200W): T1 sequence (A0A219KWM7 18-443 W248Y)
Put plainly: Two-electrode voltage clamp of Hco-ACC-2 F200W mutant in Xenopus laevis oocytes.

[1] abbreviates: EC50 ± standard error, F200Y, F200Y mutant, n ≥ 5 oocytes.

Where a name gives a salt, the structure may show the parent alone.

Turning to `CC(C[N+](C)(C)C)OC(N)=O` (stereo not drawn) [Urecholine, Carbamyl-β-methylcholine chloride], the EC50 (usually the concentration needed to bring the measured effect to its halfway point) on Hco-ACC-2 W248Y was above 1000 µM; on Hco-ACC-2 W248F it was above 1000 µM; on Hco-ACC-2 F200W/W248F, above 20000 µM; at Hco-ACC-2 F200Y (setting [1]) it was 81 ± 3 µM; at Hco-ACC-2 F200W it was 2150 ± 215 µM.
As to `c1ccc([C@H]2CN3CCSC3=N2)cc1` [Levamisole, Levamisole Hydrochloride], the EC50 is above 1000 µM at Hco-ACC-2 W248Y, above 1000 µM on Hco-ACC-2 W248F, above 20000 µM on Hco-ACC-2 F200W/W248F and 39 ± 3 µM at Hco-ACC-2 F200Y (setting [1]).
For `CN1CCCN=C1/C=C/c1cccs1` [Pyrantel, Pyrantel Citrate Salt], the EC50 is above 1000 µM at Hco-ACC-2 W248Y; above 1000 µM on Hco-ACC-2 W248F; above 20000 µM on Hco-ACC-2 F200W/W248F; 44 ± 2 µM on Hco-ACC-2 F200Y (setting [1]); 160 ± 20 µM at Hco-ACC-2 F200W.
As to `CC(=O)OC(C)C[N+](C)(C)C` (stereo not drawn) [Methacholine, Acetyl-β-methylcholine Chloride], the EC50 at Hco-ACC-2 W248Y was above 1000 µM; at Hco-ACC-2 W248F, above 1000 µM; at Hco-ACC-2 F200W/W248F, above 20000 µM; at Hco-ACC-2 F200Y (setting [1]) it was 20 ± 1 µM; on Hco-ACC-2 F200W, 644 ± 84 µM.
At Hco-ACC-2 F200Y (EC50, F200Y mutant), `CN1CCC[C@H]1c1cccnc1` [Nicotine] returned an EC50 of 277 ± 8 µM.
As for `C[N+](C)(C)CCOC(N)=O` [Carbachol, Carbamoylcholine Chloride], the concentration for a half-maximal effect (EC50) at Hco-ACC-2 W248Y was above 1000 µM; at Hco-ACC-2 W248F, above 1000 µM; on Hco-ACC-2 F200W/W248F it was above 20000 µM; on Hco-ACC-2 F200Y (setting [1]), 9.7 ± 0.5 µM; at Hco-ACC-2 F200W it was 67 ± 4 µM.
For `C[N+](C)(C)CCO` [Choline, Choline Chloride], the half-maximal effective concentration (EC50) at Hco-ACC-2 W248Y is above 1000 µM; on Hco-ACC-2 W248F it was above 1000 µM; on Hco-ACC-2 F200W/W248F, above 20000 µM; at Hco-ACC-2 F200Y (setting [1]), 650 ± 13 µM; at Hco-ACC-2 F200W it was 4770 ± 543 µM.

These data come from paper PMC6287471 (International Journal for Parasitology: Drugs and Drug …, 2018).
